From US20230242521A1, “PHARMACEUTICAL COMPOSITION FOR PREVENTING OR TREATING PANCREATIC CANCER ASSOCIATED WITH RON MUTATION AND METHOD USING SAME” (WELLMARKER BIO CO., LTD., priority 2020, published 2023) come the findings set out here.

The structures appear in SMILES notation. Counter-ions that a name gives are not always drawn.

Usually IC50 stands for the point on the concentration scale where inhibition reaches its midpoint. Read a low IC50 as greater potency in that assay.

Assay [1] has as its system Panc-1 pancreatic cancer cell line (mutation RONΔ155 type). In words: MTS assay, cell growth inhibitory ability, Panc-1. The format is cell-based. The settings on record: Homo sapiens; Panc-1, RON mutation Δ155, cultured 72 hours. Here is the method: (§1) In order to compare and confirm the cell growth inhibitory ability of Examples 1 (WM-S1-030) to 5 and positive control 1 (BMS-777607) in two pancreatic cancer cell lines ofa mutation RONΔ155 type (Panc-1 and Capan-1) and one pancreatic cancer cell line of a mutation RONΔ160 type (Mia-PaCa2), MTS assay was carried out.
(§2) For MTS assay, 1,000 cells of each pancreatic cancer cell line per well were seeded in a 96-well-plate, and 24 hours later, treated with the compounds of Examples 1 to 5 and positive control 1 at various concentrations (0.000001 μM to 10 μM) in 100 μL of 10% FBS-RPMI medium (Welgene) per each well. Thereafter, the cells were cultured for 72 hours. 20 μL of MTS solution (Promega) was added and cultured for 2 hours, and then absorbance was measured at 490 nm. The cytotoxicity was analyzed by deriving the IC50 for the compounds of Examples 1 to 5 and positive control 1 using GraphPad Prism™ 5.
In general terms: Formazan colour is commonly taken as a measure of viable cells.

The test system of assay [2] is Capan-1 pancreatic cancer cell line (mutation RONΔ155 type). As to the kind of experiment: MTS assay, cell growth inhibitory ability, Capan-1. The format is cell-based. The settings on record: Homo sapiens; Capan-1, RON mutation Δ155, cultured 72 hours. Here is the method: as §1, §2
Assay [3] deals with Mia-PaCa2 pancreatic cancer cell line (mutation RONΔ160 type). In words: MTS assay, cell growth inhibitory ability, Mia-PaCa2. Particulars: Homo sapiens; Mia-PaCa-2, RON mutation Δ160, cultured 72 hours. The format is cell-based. As for the experimental part: as §1, §2
For assay [4], the system named is Mia-PaCa2 (mRONΔ160) pancreatic cancer cell line transplanted tumor. In words: Tumor growth inhibition in Mia-PaCa2 transplanted mouse model. The format is in vivo. The settings on record: orally once a day for 4 weeks; for Tumor growth inhibition rate (TGI, %): 30 mg/kg, BALB/c-nude mice with Mia-PaCa2 tumor; for tumor growth inhibition (in words): 30 mpk, Mia-PaCa2 transplanted mice. The source says:
FIG. 2 illustrates the results obtained by confirming the tumor growth rate for a mouse model transplanted with the Mia-PaCa2 cell line, which is a pancreatic cancer cell line of a mutation RONΔ160 type, having received Example 1 (WM-S1-030) at a dose of 30 mpk and positive control 1 (BMS-777607) at a dose of 30 mpk. It was confirmed whether tumor growth was inhibited by administering Example 1 (WM-S1-030) at a dose of 30 mpk to a mouse model transplanted with Mia-PaCa2, which is a pancreatic cancer cell line of a mutation RONΔ160 type. Specifically, 5-week-old female BALB/c-nude mice were purchased and acclimatized for 1 week. Thereafter, Mia-PaCa2 (2×10^6 cells/mouse), a pancreatic cancer cell line of a mutation RONΔ160 type, was diluted in PBS (phosphate buffered saline) and Matrigel, and 100 μL was injected subcutaneously into the right dorsal side of the mouse. When the size of the tumor reached about 100 mm^3, the negative control (excipient) and Example 1 were orally administered. In this case, positive control 1 (BMS-777607) was administered at a dose of 30 mpk. The drug was administered once a day for 4 weeks, and the tumor size and body weight were measured twice a week. After the drug administration was completed, the mice were euthanized, the tumor was extracted, and the weight was measured.

A further assay deals with pTyr-mRON. In words: Immunochemical staining of tumor tissue, Mia-PaCa2 transplanted mouse model: pTyr-mRON. Type of assay: in vivo. The settings on record: 10 mpk, 30 mpk, Mia-PaCa2 transplanted mice. Here is the method: (§3) FIG. 3 illustrates the results obtained by immunochemical staining of the tumor tissue for a mouse model transplanted with the Mia-PaCa2 cell line, which is a pancreatic cancer cell line of a mutation RONΔ160 type, having received Example 1 (WM-S1-030) at a dose of 10 mpk or 30 mpk and the positive control (BMS-777607) at a dose of 30 mpk.
(§4) Example 1 (WM-S1-030) was administered at each concentration (10 mpk, 30 mpk) and positive control 1 (BMS-777607) was administered at a dose of 30 mpk to a mouse model transplanted with the Mia-PaCa2 cell line, which is a pancreatic cancer cell line of a mutation RONΔ160 type. The tumor was extracted, and the expression changes of the proteins were analyzed by immunochemical staining.
(§5) Specifically, paraffin slides were prepared using tissues isolated from the sacrificed mice. The tissue sections were deparaffinized and rehydrated, immersed in the target recovery buffer 1× (ScyTek Laboratories, Cat #CBB999) and heated for 15 minutes to perform an antigen recovery process. After the reaction, the tissue sections were washed in Tris buffered saline-0.05% Tween 20 (TBS-T) (T&I, BTT-9310) for 5 minutes, and then the reaction was performed with a non-specific antibody response blocking reagent (vector, SP-5035) for 1 hour. […]

In a further assay the test system is cleaved caspase 3. As to the kind of experiment: Immunochemical staining of tumor tissue, Mia-PaCa2 transplanted mouse model: cleaved caspase 3. The settings on record: 10 mpk, 30 mpk, Mia-PaCa2 transplanted mice. Type of assay: in vivo. As for the experimental part:
as §3, §4, §5

In a further assay the test system is cyclin D1. In words: Immunochemical staining of tumor tissue, Mia-PaCa2 transplanted mouse model: cyclin D1. Type of assay: in vivo. Particulars: 10 mpk, 30 mpk, Mia-PaCa2 transplanted mice. Here is the method:
as §3, §4, §5

Assay [5] relates to pancreatic cancer cell lines of mutation RONΔ155 type (Panc-1 and Capan-1) and RONΔ160 type (Mia-PaCa2). In words: MTS assay, text summary over the three pancreatic cancer cell lines. The settings on record: Panc-1, Capan-1, Mia-PaCa2; 0.000001 μM to 10 μM, 72 hours. The format is cell-based. As for the experimental part: as §1, §2
In assay [6] the test system is pancreatic cancer cell lines of a mutation RON type (Panc-1, Capan-1, Mia-PaCa2). In words: Cell killing efficacy, trypan blue exclusion assay. Type of assay: cell-based. The settings on record: 1 μM and 5 μM, 48 hours. As for the experimental part: FIGS. 1A to IC illustrate the results obtained by comparing and confirming the cell killing efficacy for the Panc-1 and Capan-1 cell lines, which are pancreatic cancer cell lines of a mutation RONΔ155 type, and the Mia-PaCa2 cell line, which is a pancreatic cancer cell line of a mutation RONΔ160 type, having been treated with the compounds of Examples 1 (WM-S1-030) to 5 and positive control 1 (BMS-777607) at a concentration of 1 μM and 5 μM, respectively.
Two pancreatic cancer cell lines of a mutation RONΔ155 type (Panc-1 and Capan-1) and one pancreatic cancer cell line of a mutation RONΔ160 type (Mia-PaCa2) were dispensed, and 24 hours later, treated with 1 μM and 5 μM of the compounds of Examples 1 (WM-S1-030) to 5 and positive control 1 (BMS-777607), respectively, while replacing the medium. After 48 hours, the cells and the cell fluid were harvested (1,500 rpm, 4 minutes), and live cells and dead cells were quantified through trypan blue (15250-061, Gibco) exclusion assay. Statistical analysis was performed using T-test in Excel.

Consider `CCOc1ccn(-c2ccccc2)c(=O)c1C(=O)Nc1ccc(Oc2ccnc3cc(-c4ccc(CNCCOC)cn4)sc23)c(F)c1` [Example 2, 4-ethoxy-N-(3-fluoro-4-{[2(5-{[(2-methoxyethyl)amino]methyl}pyridin-2-yl)thieno[3,2-b]pyridin-7-yl]oxy}phenyl)-2-oxo-1-phenyl-1,2-dihydropyridine-3-carboxamide hydrochloride], for which the IC50 in [1] amounted to 3880 nM; in [2], 1540 nM; in assay [3] it was 1840 nM.

For the compound `CCOc1ccn(-c2ccc(F)cc2)c(=O)c1C(=O)Nc1ccc(Oc2ccnc3cc(-c4ccc(CN5CCOCC5)cn4)sc23)c(F)c1.Cl` [Example 1, 4-ethoxy-N-[3-fluoro-4-({2-[5-(morpholinomethyl)pyridin-2-yl]thieno[3,2-b]pyridin-7-yl}oxy)phenyl]-1-(4-fluorophenyl)-2-oxo-1,2-dihydropyridine-3-carboxamide hydrochloride], the IC50 worked out at 2440 nM in assay [1], 630 nM in assay [2] and 620 nM in assay [3]. Further, in [4], the “Tumor growth inhibition rate (TGI, %)” value was 57.2 ± 3.1%. In addition, the “tumor growth inhibition (in words)” value in assay [4] is “tumor growth was significantly inhibited”. The “expression of pTyr-mRON in tumor tissue” value in the assay with pTyr-mRON is on record as “the expression of pTyr-mRON was decreased”. For the same compound, in the assay on cleaved caspase 3, the “expression of cleaved caspase 3 in tumor tissue” value is on record as “the expression of cleaved caspase 3 was induced”. The “expression of cyclin D1 (PD marker) in tumor tissue” value with cyclin D1 is given as “the expression of cyclin D1, a PD marker, was decreased”.

Turning to `COc1cc2c(Oc3ccc(NC(=O)c4c5c(cn(-c6ccc(F)cc6)c4=O)CCO5)cc3F)ccnc2cc1OCCN1CCOCC1` [Example 4, N-(3-fluoro-4-{[6-methoxy-7-(2-morpholinoethoxy)quinolin-4-yl]oxy}phenyl)-5-(4-fluorophenyl)-6-oxo-2,3,5,6-tetrahydrofuro[3,2-c]pyridine-7-carboxamide], the half-maximal inhibitory concentration (IC50) came to 460 nM in assay [1], 320 nM in assay [2] and 370 nM in assay [3].

As to `CCOc1ccn(-c2ccc(F)cc2)c(=O)c1C(=O)Nc1ccc(Oc2ccnc(N)c2Cl)c(F)c1` [Positive control 1, N-{4-[(2-amino-3-chloro-4-pyridinyl)oxy]-3-fluorophenyl}-4-ethoxy-1-(4-fluorophenyl)-2-oxo-1,2-dihydro-3-pyridinecarboxamide, reference compound], the IC50 in assay [1] was greater than 10000 nM; in assay [2], greater than 10000 nM; in assay [3], 6060 nM. Besides, the “response to the drug / cell growth inhibition (MTS)” value in [5] is “the response to the drug was low”. Moreover, the “cell death / response to the drug (trypan blue exclusion)” value in [6] is reported as “the response to the drug was low”. The “Tumor growth inhibition rate (TGI, %)” value in assay [4] turned out to be 4.7 ± 7.4%. Besides, the “tumor growth inhibition (in words)” value in assay [4] is “tumor growth was inhibited relatively little”.

As for `COc1cc2c(Oc3ccc(NC(=O)c4c5c(cn(-c6ccc(F)cc6)c4=O)CCO5)cc3F)ccnc2cc1OCCCN1CC(C#N)C1` [Example 5, N-[4-({7-[3-(3-cyanoazetidin-1-yl)propoxy]-6-methoxyquinolin-4-yl}oxy)-3-fluorophenyl]-5-(4-fluorophenyl)-6-oxo-2,3,5,6-tetrahydrofuro[3,2-c]pyridine-7-carboxamide], the half-inhibitory concentration (IC50) in assay [1] was 310 nM; in assay [2], 170 nM; in [3] it was 150 nM.

As to `CCOc1ccn(-c2ccccc2)c(=O)c1C(=O)Nc1ccc(Oc2ccnc3cc(-c4ccc(CN5CCN(C)CC5)cn4)sc23)c(F)c1` [Example 3, 4-ethoxy-N-{3-fluoro-4-[(2-(5-[(-methylpiperazin-1-yl)methyl]pyridin-2-yl)thieno[3,2-b]pyridin-7-yl)oxy]phenyl}-2-oxo-1-phenyl-1,2-dihydropyridine-3-carboxamide hydrochloride], the half-inhibitory concentration (IC50) in [1] came out at 1090 nM; in [2], 370 nM; in assay [3] it was 250 nM.
